Measured values published in the NIST ThermoML archive (doi:10.1016/j.jct.2004.12.014).

Columns and labels:
[1] = xn = mol fraction of the nth substance listed; conditions: 318.15 K, 101 kPa, Liquid
[2] = excess molar enthalpy (molar enthalpy of mixing); xn = mol fraction of the nth substance listed; conditions: 318.15 K, 101 kPa, Liquid

CCCCCCCCCCCCCCCCC [heptadecane] + CCOC(=O)CC
Conditions | excess molar enthalpy [kcal/mol] | excess molar volume [m3/mol]
[1], x2 = 0.066 | – | 2.51e-07
[1], x2 = 0.1449 | – | 5.19e-07
[1], x2 = 0.2675 | – | 8.82e-07
[1], x2 = 0.3677 | – | 1.105e-06
[1], x2 = 0.4535 | – | 1.215e-06
[1], x2 = 0.5272 | – | 1.268e-06
[1], x2 = 0.5954 | – | 1.278e-06
[1], x2 = 0.6524 | – | 1.237e-06
[1], x2 = 0.7503 | – | 1.094e-06
[1], x2 = 0.7915 | – | 9.93e-07
[1], x2 = 0.8304 | – | 8.71e-07
[1], x2 = 0.8626 | – | 7.59e-07
[1], x2 = 0.8973 | – | 6.31e-07
[1], x2 = 0.9257 | – | 4.92e-07
[1], x2 = 0.9523 | – | 3.54e-07
[1], x2 = 0.9771 | – | 1.83e-07
[2], x2 = 0.1049 | 0.125 | –
[2], x2 = 0.213 | 0.232 | –
[2], x2 = 0.3031 | 0.311 | –
[2], x2 = 0.3846 | 0.366 | –
[2], x2 = 0.4607 | 0.402 | –
[2], x2 = 0.5315 | 0.42 | –
[2], x2 = 0.5885 | 0.421 | –
[2], x2 = 0.6272 | 0.413 | –
[2], x2 = 0.6888 | 0.386 | –
[2], x2 = 0.7229 | 0.364 | –
[2], x2 = 0.7635 | 0.334 | –
[2], x2 = 0.8055 | 0.296 | –
[2], x2 = 0.8479 | 0.254 | –
[2], x2 = 0.8897 | 0.202 | –
[2], x2 = 0.9313 | 0.138 | –
[2], x2 = 0.9727 | 0.0626 | –

CCCCCOC(=O)CC [pentyl propanoate] + CCCCCCC
Conditions | excess molar enthalpy [kcal/mol] | excess molar volume [m3/mol]
[1], x1 = 0.0556 | – | 6.6e-08
[1], x1 = 0.1092 | – | 1.1e-07
[1], x1 = 0.182 | – | 1.41e-07
[1], x1 = 0.217 | – | 1.68e-07
[1], x1 = 0.2721 | – | 1.85e-07
[1], x1 = 0.3275 | – | 1.96e-07
[1], x1 = 0.3857 | – | 1.98e-07
[1], x1 = 0.4428 | – | 1.92e-07
[1], x1 = 0.5013 | – | 1.78e-07
[1], x1 = 0.5611 | – | 1.59e-07
[1], x1 = 0.6204 | – | 1.37e-07
[1], x1 = 0.6824 | – | 1.03e-07
[1], x1 = 0.742 | – | 7.7e-08
[1], x1 = 0.8047 | – | 4.9e-08
[1], x1 = 0.8674 | – | 2.9e-08
[1], x1 = 0.9323 | – | 9e-09
[2], x1 = 0.0541 | 0.0384 | –
[2], x1 = 0.1161 | 0.0728 | –
[2], x1 = 0.1808 | 0.101 | –
[2], x1 = 0.2438 | 0.123 | –
[2], x1 = 0.3073 | 0.141 | –
[2], x1 = 0.3672 | 0.152 | –
[2], x1 = 0.4224 | 0.157 | –
[2], x1 = 0.445 | 0.158 | –
[2], x1 = 0.4906 | 0.159 | –
[2], x1 = 0.5414 | 0.157 | –
[2], x1 = 0.5976 | 0.149 | –
[2], x1 = 0.6595 | 0.137 | –
[2], x1 = 0.725 | 0.119 | –
[2], x1 = 0.7935 | 0.0946 | –
[2], x1 = 0.8667 | 0.0645 | –
[2], x1 = 0.9349 | 0.0338 | –

CCCCCOC(=O)CC [pentyl propanoate] + CCCCCCCCCCC
Conditions | excess molar enthalpy [kcal/mol] | excess molar volume [m3/mol]
[1], x1 = 0.079 | – | 1.89e-07
[1], x1 = 0.1498 | – | 3.48e-07
[1], x1 = 0.2179 | – | 4.36e-07
[1], x1 = 0.2836 | – | 5.2e-07
[1], x1 = 0.3484 | – | 5.69e-07
[1], x1 = 0.4116 | – | 6.03e-07
[1], x1 = 0.4733 | – | 6.14e-07
[1], x1 = 0.5329 | – | 6.13e-07
[1], x1 = 0.5902 | – | 5.99e-07
[1], x1 = 0.6462 | – | 5.83e-07
[1], x1 = 0.7023 | – | 5.24e-07
[1], x1 = 0.7545 | – | 4.67e-07
[1], x1 = 0.8065 | – | 3.79e-07
[1], x1 = 0.8561 | – | 3.1e-07
[1], x1 = 0.9045 | – | 2.2e-07
[1], x1 = 0.9538 | – | 1.21e-07
[2], x1 = 0.0724 | 0.0592 | –
[2], x1 = 0.153 | 0.109 | –
[2], x1 = 0.229 | 0.148 | –
[2], x1 = 0.3051 | 0.179 | –
[2], x1 = 0.3748 | 0.197 | –
[2], x1 = 0.4452 | 0.206 | –
[2], x1 = 0.5015 | 0.206 | –
[2], x1 = 0.5466 | 0.201 | –
[2], x1 = 0.556 | 0.2 | –
[2], x1 = 0.6046 | 0.192 | –
[2], x1 = 0.6573 | 0.179 | –
[2], x1 = 0.7137 | 0.161 | –
[2], x1 = 0.7726 | 0.14 | –
[2], x1 = 0.8314 | 0.112 | –
[2], x1 = 0.8897 | 0.0786 | –
[2], x1 = 0.9449 | 0.0436 | –

CCC(=O)OC [methyl propanoate] + CCCCCCCCCCC
Conditions | excess molar enthalpy [kcal/mol] | excess molar volume [m3/mol]
[1], x1 = 0.0968 | – | 4.8e-07
[1], x1 = 0.1299 | – | 6.34e-07
[1], x1 = 0.2313 | – | 1.02e-06
[1], x1 = 0.3207 | – | 1.285e-06
[1], x1 = 0.4052 | – | 1.433e-06
[1], x1 = 0.4772 | – | 1.508e-06
[1], x1 = 0.5465 | – | 1.514e-06
[1], x1 = 0.6062 | – | 1.482e-06
[1], x1 = 0.6609 | – | 1.417e-06
[1], x1 = 0.7121 | – | 1.302e-06
[1], x1 = 0.7581 | – | 1.188e-06
[1], x1 = 0.8001 | – | 1.041e-06
[1], x1 = 0.8396 | – | 9.14e-07
[1], x1 = 0.876 | – | 7.62e-07
[1], x1 = 0.9105 | – | 6.09e-07
[1], x1 = 0.9416 | – | 4.25e-07
[1], x1 = 0.9727 | – | 2.27e-07
[2], x1 = 0.0844 | 0.118 | –
[2], x1 = 0.1733 | 0.219 | –
[2], x1 = 0.2574 | 0.3 | –
[2], x1 = 0.327 | 0.355 | –
[2], x1 = 0.3915 | 0.394 | –
[2], x1 = 0.4431 | 0.416 | –
[2], x1 = 0.4953 | 0.432 | –
[2], x1 = 0.5414 | 0.436 | –
[2], x1 = 0.5798 | 0.434 | –
[2], x1 = 0.6125 | 0.428 | –
[2], x1 = 0.6312 | 0.422 | –
[2], x1 = 0.6661 | 0.406 | –
[2], x1 = 0.7078 | 0.382 | –
[2], x1 = 0.7509 | 0.348 | –
[2], x1 = 0.7942 | 0.307 | –
[2], x1 = 0.8346 | 0.263 | –
[2], x1 = 0.8799 | 0.21 | –
[2], x1 = 0.9235 | 0.148 | –
[2], x1 = 0.9624 | 0.0795 | –
